Measured values reported in patent US6835382B2, “Ii peptide therapeutics to enhance antigen presentation” (University of Massachusetts, priority 1996, dated 2004).
Non-standard residues stand in square brackets, D forms with d. hArg = N=C(N)NCCCC[C@H](N)C(=O)O

How the values were obtained:
[1] = target: T1, murine E^d MHC class II allele (Mus musculus, UniProt P01904+P01915); assay: antigenic peptide prepulse assay, E^d allele (fixed APC prepulsed with HEL106-116); format: cell-based; parameters: The A20 and CH27 B cell lymphoma lines express H-2^d and H-2^k alleles, respectively; endogenous in cells; host or cells: A20 B cell lymphoma (mitomycin C-treated or paraformaldehyde-fixed); conditions: for Activity in antigenic peptide prepulse assay, E^d (baseline = 1): Table 23, as printed: antigenic peptide prepulse 64 μM, AE peptide 1:4 μM; for Activity in antigenic peptide prepulse assay, E^d (baseline = 1.00) / Activity in antigenic peptide prepulse assay, E^d (baseline = 1.0): AE peptide 64 μM; for Activity in antigenic peptide prepulse assay, E^d (baseline = 1.0): Table 26, supernatant 1:2
T1 sequence (P01904 26-255): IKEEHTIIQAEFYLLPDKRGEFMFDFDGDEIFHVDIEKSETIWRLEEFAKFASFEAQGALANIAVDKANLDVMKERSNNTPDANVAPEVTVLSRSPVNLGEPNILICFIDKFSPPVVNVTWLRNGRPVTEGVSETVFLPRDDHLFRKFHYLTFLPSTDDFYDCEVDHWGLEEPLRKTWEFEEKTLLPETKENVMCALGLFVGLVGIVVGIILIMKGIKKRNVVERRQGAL
T1 sequence (P01915 27-264 limits assumed): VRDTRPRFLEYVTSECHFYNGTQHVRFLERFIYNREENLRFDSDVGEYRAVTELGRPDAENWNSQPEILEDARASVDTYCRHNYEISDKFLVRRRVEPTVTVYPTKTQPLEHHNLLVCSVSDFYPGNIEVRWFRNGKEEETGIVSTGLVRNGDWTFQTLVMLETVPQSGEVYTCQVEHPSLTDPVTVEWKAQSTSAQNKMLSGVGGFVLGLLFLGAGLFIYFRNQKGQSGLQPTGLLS
Method: (§1) In a second type of assay, the “peptide prepulse assay”, the antigenic peptide is incubated with paraformaldehyde-fixed APC for 6 h. The APC are washed and incubated for 24 h with the AE101 series homolog and the T cell hybridoma specific for the antigenic peptide. After that incubation, an aliquot of the culture supernatant is transferred to a second culture to measure the relative degree of T hybridoma stimulation, as reflected in the effect of released interleukins on the growth of an interleukin-dependent, indicator cell line, as described above.
(§2) The two above described assays measure different aspects of the molecular mechanism of the AE101 series of peptides. In the “simultaneous assay”, AE101 series peptides are thought to induce the release of endogenously bound peptides and to permit the binding of the second, specific antigenic peptide which is relatively abundant in the culture fluid. The AE101 series peptides enhance antigenic peptide-specific T cell responses in simultaneous assays. In the “peptide prepulse” assay, the specific antigenic peptide becomes bound to MHC class II molecules on the surface of the fixed APC during the 6 h prepulse incubation. The effect of the AE101 series homologs is then thought to release that antigenic peptide, resulting in an apparent suppression of the immune response.
(§3) The AE101 series peptides are thought to contact the MHC class II molecules at a discrete site outside the antigenic peptide-binding groove. AE101 peptide binding to this “Ii-KEY” site is thought to induce a conformational change in the MHC class II molecules accelerating the dissociation of previously bound antigenic peptide. […] The AE101 series peptides thus inhibit antigenic peptide-specific T cell responses in the “peptide prepulse” assays.
(§4) Antigenic peptide-specific T cell activation was measured by the following procedure. Mitomycin C-treated A20 cells (A^dE^d) or CH27 cells APC (A^kE^k) were generated by incubating 5×10^6 cells/mL for 20 min at 37° C. with 0.025 mg/mL of mitomycin C (Sigma) in Dulbecco's Modified Eaglel's Medium (DMEM)/10 mM N-2(hydroxyethylpiperazine-N″[2-ethanesulfonic acid] (HEPES), followed by two washes with four volumes of DMEM-5% fetal calf serum (FCS), 10 mM HEPES. Fixed APC were generated by treating 1×10^6 cells/mL for 5 min with 0.5% paraformaldehyde in PBS (pH 7.2), followed by two washes with four volumes of DMEM-10% FCS, 10 mM HEPES. T cell hybridomas were irradiated 2200 rads before each assay.
(§5) The “peptide prepulse assay” was carried out under essentially the same conditions as described for the “simultaneous assay” with the following modifications. Fixed APC were first incubated for 6 h at 1×10^6 cells/mL in complete DMEM-5% FCS in 24-well microculture plates (1 mL/well) with antigenic peptide, followed by four washes with 10 volumes of DMEM-5% FCS. The cells were then exposed to varying concentrations of AE101 series peptide (64 μM, 16 μM, 4 μM, and 1 μM) for 24 h in the presence of the T cell hybridoma specific to the antigenic peptide. Interleukin release from these cultures was measured by proliferation of HT-2 cells to interleukins in supernatants transferred from the primary culture. Generally, a single dose of 64 μM of each AE101 series peptide was used. The baseline T cell response was measured by culturing T hybridoma cells with the antigenic peptide-prepulsed APC in the absence of AE101 series peptides.
[…] […] Paraformaldehyde-treated APC (fixed APC) expressing MHC class II molecules were incubated with antigenic peptide for 6 h (HEL106-116 for E^d and PGCC81-104 for E^k). After this incubation, the prepulsed APC were washed and cultured with T hybridoma cells and AE101 series peptides. […] The AE101 series peptide concentrations were 64 μM for E^d and 16 μM for E^k. The dilutions of supernatant taken into the HT-2 cell assay were 1:4 for Ed and 1:2 for E^k.

[2] = test system: murine E^k MHC class II allele; assay: antigenic peptide prepulse assay, E^k allele (fixed APC prepulsed with PGCC81-104); format: cell-based; conditions: for Activity in antigenic peptide prepulse assay, E^k (baseline = 1): Table 23, as printed: antigenic peptide prepulse 64 μM, AE peptide 1:8 μM; for Activity in antigenic peptide prepulse assay, E^k (baseline = 1.0): Table 26, prepulse 1.25 μM antigenic peptide
Method: as §1, §2, §3, §4, §5
Table 19: Activities of C-terminal truncation analogs of AE101 in an antigenic peptide prepulse assay. […] Paraformaldehyde-treated APC (fixed APC) expressing MHC class II molecules were incubated with antigenic peptide for 6 h (HEL106-116 for E^d and PGCC81-104 for E^k). After this incubation, the prepulsed APC were washed and cultured with T hybridoma cells and AE101 series peptides. The antigenic peptide concentration during the prepulse was 12 μM for Ed and 20 μM for E^k. The AE101 series peptide concentrations were 64 μM for E^d and 16 μM for E^k. […]

[3] = Table 24, prepulse 24 μM antigenic peptide, supernatant 1:4
[4] = Table 24, AE peptide 64 μM, prepulse 0.625 μM antigenic peptide, supernatant 1:8
[5] = Table 25, prepulse 24 μM antigenic peptide, supernatant 1:4
[6] = Table 25, AE peptide 64 μM, prepulse 2.5 μM antigenic peptide, supernatant 1:10
[7] = Table 22, prepulse 6 μM antigenic peptide, supernatant 1:8
[8] = Table 22, AE peptide 16 μM, prepulse 20 μM antigenic peptide, supernatant 1:2
[9] = prepulse 24 μM antigenic peptide
[10] = AE peptide 64 μM, supernatant 1:8

| Substance | Activity in antigenic peptide prepulse assay, E^d (baseline = 1.00) [1, 3] | Activity in antigenic peptide prepulse assay, E^k (baseline = 1.00) [2, 4] | Activity in antigenic peptide prepulse assay, E^d (baseline = 1.00) [1, 5] | Activity in antigenic peptide prepulse assay, E^k (baseline = 1.00) [2, 6] | also measured |
| --- | --- | --- | --- | --- | --- |
| Ac- (mL) RMKLPK-NH2 [AE174] | 0.60 | 0.81 |  |  | Activity in antigenic peptide prepulse assay, E^d (baseline = 1) ([1]; supernatant 1:8): 0.6; Activity in antigenic peptide prepulse assay, E^k (baseline = 1) ([2]; supernatant 1:2): 0.81 |
| Ac-ARMKLPKSAK-NH2 [AE120] |  |  | 0.63 | 0.62 |  |
| Ac-ARMKNPK-NH2 [AE345] |  |  | 0.61 | 0.86 |  |
| Ac-ARNKLPK-NH2 [AE344] |  |  | 0.46 | 0.76 |  |
| Ac-ARNKNPF-NH2 [AE347] |  |  | 0.64 | 1.10 |  |
| Ac-ARNKNPK-NH2 [AE346] |  |  | 0.65 | 0.77 |  |
| Ac-L r MKLPK-NH2 [AE161] |  |  |  |  | Activity in antigenic peptide prepulse assay, E^d (baseline = 1.00) [1, 7]: 0.30; Activity in antigenic peptide prepulse assay, E^k (baseline = 1.00) [2, 8]: 0.85 |
| Ac-LR (mL) KLPK-NH2 [AE302] | 0.82 | 0.85 |  |  |  |
| Ac-LR (mL) KYPK-NH2 [AE303] | 0.78 | 1.00 |  |  |  |
| Ac-LR (mL) KYPk-NH2 [AE305] | 0.72 | 0.91 |  |  |  |
| Ac-LR (mL) KyPK-NH2 [AE304] | 0.78 | 0.76 |  |  |  |
| Ac-LR (mL) KyPk-NH2 [AE306] | 0.68 | 1.00 |  |  |  |
| Ac-LR HArg KLPK-NH2 [AE197] |  |  |  |  | Activity in antigenic peptide prepulse assay, E^d (baseline = 1.0) [1, 9]: 0.32; Activity in antigenic peptide prepulse assay, E^k (baseline = 1.0) [2, 10]: 0.96 |
| Ac-LR L KLPK-NH2 (Ac-LRLKLPK-NH2; not fully specified; printed as Ac-LR L KLPK-NH2) [AE206] | 0.52 | 1.00 | 0.18 | 0.68 | Activity in antigenic peptide prepulse assay, E^d (baseline = 1.0) [1, 9]: 0.38; Activity in antigenic peptide prepulse assay, E^k (baseline = 1.0) [2, 10]: 0.96 |
| Ac-LR N KLPK-NH2 (Ac-LRNKLPK-NH2) [AE202] |  |  | 0.30 | 0.84 |  |
| Ac-LR m KLPK-NH2 [AE162] |  |  |  |  | Activity in antigenic peptide prepulse assay, E^d (baseline = 1.00) [1, 7]: 0.28; Activity in antigenic peptide prepulse assay, E^k (baseline = 1.00) [2, 8]: 0.61 |
| Ac-LRLK HArg PK-NH2 [AE341] |  |  | 0.12 | 1.10 |  |
| Ac-LRLKWPK-NH2 [AE309] | 0.44 | 0.81 | 0.48 | 0.93 | Activity in antigenic peptide prepulse assay, E^d (baseline = 1.0) [1, 9]: 0.25; Activity in antigenic peptide prepulse assay, E^k (baseline = 1.0) [2, 10]: 0.98 |
| Ac-LRLKYPK-NH2 [AE301] | 0.48 | 0.80 | 0.66 | 0.86 | Activity in antigenic peptide prepulse assay, E^d (baseline = 1.0) [1, 9]: 0.34; Activity in antigenic peptide prepulse assay, E^k (baseline = 1.0) [2, 10]: 0.99 |
| Ac-LRLKYPk-NH2 [AE307] | 0.59 | 1.10 |  |  |  |
| Ac-LRLKyPK-NH2 [AE308] | 0.93 | 0.63 |  |  |  |
| Ac-LRM M LPK-NH2 (Ac-LRMMLPK-NH2) [AE220] |  |  |  |  | Activity in antigenic peptide prepulse assay, E^d (baseline = 1.0) [1, 9]: 0.73; Activity in antigenic peptide prepulse assay, E^k (baseline = 1.0) [2, 10]: 0.92 |
| Ac-LRM k LPK-NH2 [AE163] |  |  |  |  | Activity in antigenic peptide prepulse assay, E^d (baseline = 1.00) [1, 7]: 0.39; Activity in antigenic peptide prepulse assay, E^k (baseline = 1.00) [2, 8]: 0.99 |
| Ac-LRMK (mL) PK-NH2 [AE175] | 0.70 | 0.87 |  |  | Activity in antigenic peptide prepulse assay, E^d (baseline = 1) ([1]; supernatant 1:8): 0.7; Activity in antigenic peptide prepulse assay, E^k (baseline = 1) ([2]; supernatant 1:2): 0.87 |
| Ac-LRMK HArg PK-NH2 (Ac-LRMK[hArg]PK-NH2; SMILES CSCC[C@H](NC(=O)[C@H](CCCNC(=N)N)NC(=O)[C@H](CC(C)C)NC(C)=O)C(=O)N[C@@H](CCCCN)C(=O)N[C@@H](CCCCNC(=N)N)C(=O)N1CCC[C@H]1C(=O)N[C@@H](CCCCN)C(N)=O) [AE227] |  |  | 0.28 | 0.87 |  |
| Ac-LRMK N PK-NH2 (Ac-LRMKNPK-NH2) [AE232] |  |  | 0.44 | 0.92 |  |
